# Source: patent publication US20260217765A1, “NOVEL ANTIMICROBIAL PEPTIDE DESIGNED FROM DUCK-DERIVED ANTIMICROBIAL PEPTIDE ANDUSE THEREOF” (INDUSTRY-ACADEMIC COOPERATION FOUNDATION, CHOSUN UNIVERSITY, priority 2023, published 2026)
# Peptide text beside a SMILES is read from it.
# What was measured:
# [1] = system: Acinetobacter baumannii_isolate11 (antibiotic-resistant); format: cell-based, Acinetobacter baumannii; conditions: isolate11 (antibiotic-resistant)
# Excerpt: (§1) To compare the antimicrobial activity of the peptides prepared in <Example 1>, the minimum inhibitory concentration (MIC), […] measured. Here, the minimal inhibitory concentration (MIC) refers to the lowest concentration of a substance that prevents visible bacterial growth.
# (§2) Specifically, the bacterial strains listed in Table 2 below were obtained and cultured in media suitable for each strain until the mid-log phase. The cultures were then diluted to a concentration of 2×10^4 cells/100 μL and prepared in microtiter plates (Nunc, USA). Subsequently, serial 2-fold dilutions of the peptides prepared in Example 1 were prepared, and 10 μL of each dilution was added to the wells, and the plates were incubated at 37° C. for 18 hours. Absorbance at 600 nm was measured using a microtiter plate reader (Merck ELISA reader, Germany) to determine the MIC values for each bacterial strain. The parent peptide dCATH was used as a control.
# [2] = system: Acinetobacter baumannii_isolate15 (antibiotic-resistant); format: cell-based, Acinetobacter baumannii; conditions: isolate15 (antibiotic-resistant)
# Excerpt: as §1, §2
# [3] = system: Acinetobacter baumannii_isolate20 (antibiotic-resistant); format: cell-based, Acinetobacter baumannii; conditions: isolate20 (antibiotic-resistant)
# Excerpt: as §1, §2
# [4] = system: Acinetobacter baumannii_isolate 8 (antibiotic-resistant); format: cell-based, Acinetobacter baumannii; conditions: isolate 8 (antibiotic-resistant)
# Excerpt: as §1, §2
# [5] = system: Acinetobacter baumannii_isolate 22 (antibiotic-resistant); format: cell-based, Acinetobacter baumannii; conditions: isolate 22 (antibiotic-resistant)
# Excerpt: as §1, §2
# [6] = system: Acinetobacter baumannii_isolate 26 (antibiotic-resistant); format: cell-based, Acinetobacter baumannii; conditions: isolate 26 (antibiotic-resistant)
# Excerpt: as §1, §2
# [7] = system: Acinetobacter baumannii_isolate 24 (antibiotic-resistant); format: cell-based, Acinetobacter baumannii; conditions: isolate 24 (antibiotic-resistant)
# Excerpt: as §1, §2
# [8] = system: Acinetobacter baumannii_isolate 23 (antibiotic-resistant); format: cell-based, Acinetobacter baumannii; conditions: isolate 23 (antibiotic-resistant)
# Excerpt: as §1, §2
# [9] = system: Acinetobacter baumannii_isolate 19 (antibiotic-resistant); format: cell-based, Acinetobacter baumannii; conditions: isolate 19 (antibiotic-resistant)
# Excerpt: as §1, §2
# [10] = system: Acinetobacter baumannii_isolate 1 (antibiotic-resistant); format: cell-based, Acinetobacter baumannii; conditions: isolate 1 (antibiotic-resistant)
# Excerpt: as §1, §2
# [11] = system: Acinetobacter baumannii_isolate 10 (antibiotic-resistant); format: cell-based, Acinetobacter baumannii; conditions: isolate 10 (antibiotic-resistant)
# Excerpt: as §1, §2
# [12] = system: Acinetobacter baumannii_isolate21 (antibiotic-resistant); format: cell-based, Acinetobacter baumannii; conditions: isolate21 (antibiotic-resistant)
# Excerpt: as §1, §2
# [13] = system: Acinetobacter baumannii_isolate 13 (antibiotic-resistant); format: cell-based, Acinetobacter baumannii; conditions: isolate 13 (antibiotic-resistant)
# Excerpt: as §1, §2
# [14] = system: Acinetobacter baumannii_isolate 12 (antibiotic-resistant); format: cell-based, Acinetobacter baumannii; conditions: isolate 12 (antibiotic-resistant)
# Excerpt: as §1, §2
# [15] = system: Acinetobacter baumannii_isolate 2 (antibiotic-resistant); format: cell-based, Acinetobacter baumannii; conditions: isolate 2 (antibiotic-resistant)
# Excerpt: as §1, §2
# [16] = system: Acinetobacter baumannii_isolate16 (antibiotic-resistant); format: cell-based, Acinetobacter baumannii; conditions: isolate16 (antibiotic-resistant)
# Excerpt: as §1, §2
# [17] = system: Acinetobacter baumannii_isolate 18 (antibiotic-resistant); format: cell-based, Acinetobacter baumannii; conditions: isolate 18 (antibiotic-resistant)
# Excerpt: as §1, §2
# [18] = system: Acinetobacter baumannii_isolate 14 (antibiotic-resistant); format: cell-based, Acinetobacter baumannii; conditions: isolate 14 (antibiotic-resistant)
# Excerpt: as §1, §2
# [19] = system: Acinetobacter baumannii_isolate 4 (antibiotic-resistant); format: cell-based, Acinetobacter baumannii; conditions: isolate 4 (antibiotic-resistant)
# Excerpt: as §1, §2
# [20] = system: Acinetobacter baumannii_isolate 7 (antibiotic-resistant); format: cell-based, Acinetobacter baumannii; conditions: isolate 7 (antibiotic-resistant)
# Excerpt: as §1, §2
# [21] = system: Acinetobacter baumannii_isolate 17 (antibiotic-resistant); format: cell-based, Acinetobacter baumannii; conditions: isolate 17 (antibiotic-resistant)
# Excerpt: as §1, §2
# [22] = system: Acinetobacter baumannii_isolate 9 (antibiotic-resistant); format: cell-based, Acinetobacter baumannii; conditions: isolate 9 (antibiotic-resistant)
# Excerpt: as §1, §2
# [23] = system: Acinetobacter baumannii_isolate 3 (antibiotic-resistant); format: cell-based, Acinetobacter baumannii; conditions: isolate 3 (antibiotic-resistant)
# Excerpt: as §1, §2
# [24] = system: Acinetobacter baumannii_isolate 5 (antibiotic-resistant); format: cell-based, Acinetobacter baumannii; conditions: isolate 5 (antibiotic-resistant)
# Excerpt: as §1, §2
# [25] = system: Acinetobacter baumannii_isolate 6 (antibiotic-resistant); format: cell-based, Acinetobacter baumannii; conditions: isolate 6 (antibiotic-resistant)
# Excerpt: as §1, §2
# [26] = system: Acinetobacter baumannii_isolate 25 (antibiotic-resistant); format: cell-based, Acinetobacter baumannii; conditions: isolate 25 (antibiotic-resistant)
# Excerpt: as §1, §2
# [27] = system: Acinetobacter baumannii KCTC 1017; format: cell-based; conditions: for MIC: KCTC 1017; for antimicrobial activity compared to the control peptide dCATH: against Acinetobacter baumannii
# Excerpt: as §1, §2
# [28] = system: Listeria monocytogenes KCTC 3710; format: cell-based
# Excerpt: as §1, §2
# [29] = system: Escherichia coli ATCC 25922; format: cell-based
# Excerpt: as §1, §2
# [30] = system: Bacillus cereus KCTC 2508; format: cell-based
# Excerpt: as §1, §2
# [31] = system: Pseudomonas aeruginosa ATCC 27853; format: cell-based
# Excerpt: as §1, §2
# [32] = system: Staphylococcus aureus ATCC 25923; format: cell-based; conditions: for MIC: ATCC 25923; for antimicrobial activity compared to the control peptide dCATH: against Staphylococcus aureus strains
# Excerpt: as §1, §2
MIC [1],MIC [2],MIC [3],MIC [4],MIC [5],MIC [6],MIC [7],MIC [8],MIC [9],MIC [10],MIC [11],MIC [12],MIC [13],MIC [14],MIC [15],MIC [16],MIC [17],MIC [18],MIC [19],MIC [20],SMILES,further results
1 µM,1 µM,1 µM,1 µM,1 µM,2 µM,1 µM,1 µM,1 µM,1 µM,2 µM,1 µM,1 µM,1 µM,2 µM,1 µM,1 µM,2 µM,1 µM,1 µM,CC[C@H](C)[C@H](NC(=O)[C@H](C)NC(=O)[C@H](CCCCN)NC(=O)[C@H](CCCCN)NC(=O)[C@@H](NC(=O)[C@H](CC(C)C)NC(=O)[C@H](CCC(N)=O)NC(=O)[C@H](C)NC(=O)[C@H](C)NC(=O)[C@H](CCCNC(=N)N)NC(=O)[C@@H](N)CCCCN)C(C)C)C(=O)N[C@@H](CCCCN)C(=O)N[C@@H](CCCCN)C(=O)N[C@@H](Cc1ccc(O)cc1)C(=O)N[C@@H](CCCNC(=N)N)C(=O)N[C@@H](C)C(=O)N[C@@H](Cc1c[nH]c2ccccc12)C(=O)N[C@@H](CCCCN)C(=O)N[C@@H](CCCNC(=N)N)C(=O)N[C@@H](CCCNC(=N)N)C(N)=O [dCATH-A6] (H-KRAAQLVKKAIKKYRAWKRR-NH2; N-terminus assumed),MIC [21]: 1 µM; MIC [22]: 1 µM; MIC [23]: 1 µM; MIC [24]: 1 µM; MIC [25]: 2 µM; MIC [26]: 2 µM; MIC [27]: 1 µM; antimicrobial activity compared to the control peptide dCATH [27]: significantly superior antimicrobial activity; MIC [28]: 2 µM; MIC [29]: 2 µM; MIC [30]: 2 µM; MIC [31]: 2 µM; MIC [32]: 0.5 µM; antimicrobial activity compared to the control peptide dCATH [32]: notably superior activity
0.5 µM,1 µM,1 µM,1 µM,1 µM,1 µM,1 µM,1 µM,1 µM,1 µM,1 µM,1 µM,1 µM,1 µM,1 µM,1 µM,1 µM,1 µM,1 µM,1 µM,"CC[C@H](C)[C@H](NC(=O)[C@H](C)NC(=O)[C@H](CCCCN)NC(=O)[C@H](CCCCN)NC(=O)[C@@H](NC(=O)[C@H](CC(C)C)NC(=O)[C@H](CCC(N)=O)NC(=O)[C@H](C)NC(=O)[C@H](C)NC(=O)[C@H](CCCNC(=N)N)NC(=O)[C@@H](N)CCCCN)C(C)C)C(=O)N[C@@H](CCCCN)C(=O)N[C@@H](CCCCN)C(=O)N[C@@H](Cc1ccc(O)cc1)C(=O)N[C@@H](CCCNC(=N)N)C(=O)N[C@@H](C)C(=O)N[C@@H](Cc1c[nH]c2ccccc12)C(=O)N[C@@H](CCCCN)C(N)=O [dCATH-A7, KRAAQLVKKAIKKYRAWK] (H-KRAAQLVKKAIKKYRAWK-NH2; N-terminus assumed)",MIC [21]: 1 µM; MIC [22]: 1 µM; MIC [23]: 1 µM; MIC [24]: 1 µM; MIC [25]: 1 µM; MIC [26]: 1 µM; MIC [27]: 1 µM; antimicrobial activity compared to the control peptide dCATH [27]: significantly superior antimicrobial activity; MIC [28]: 4 µM; MIC [29]: 4 µM; MIC [30]: 1 µM; MIC [31]: 8 µM; MIC [32]: 0.5 µM; antimicrobial activity compared to the control peptide dCATH [32]: notably superior activity
